# Test system: primary hippocampal neuronal cells
# Assay: Hippocampal anoxia-reoxygenation cell death assay
# Format: cell-based, mice
# Settings: for Percent Activity: at dose for max. activity, live neurons by Cell Tracker Green; for Percent Activity / Dose for Max. Activity: 5 hr hypoxia, 20-24 hr reoxygenation; for cell viability: compared to hypoxia-reoxygenated cells
# Protocol: Neurobasal medium (Life Technologies, Rockville, Md.) with 1× B27 supplement (Life Technologies), […], 25 μM L-glutaxnic acid, and 1× Penicillin/Streptomycin was prepared fresh prior to use. Hank's Basic Salt Solution (HBSS, Ca/Mg-free) was prepared by preparing 1× Hanks CMF (Gibco) supplemented with HEPES (10 mM, pH 7.3), sodium bicarbonate (0.35%), 1× Penicillin/Streptomycin, and 1 mM pyruvate. Poly-D-lysine (Sigma, St. Louis, Mo.) was prepared by filtering a 50 μg/ml solution through 0.2 μm filter tubes. Sigmacote (Sigma, St. Louis, Mo.). Plastic Culture Flasks (T75 cm^2) or 12-well cell culture plates were then treated with Poly-D-Lysine (Sigma, St. Louis, Mo.).
# Pregnant female mice (E18-E19) were euthanized with CO2 prior to removal of the uterus, which was then placed in a sterile plastic petri dish. The embryos were removed from the sac, and the embryonic brains removed and immersed in cold (4° C.) Hepes Buffered Salt Solution (HBSS; Ca/Mg free; Life Technologies) in a small petri dish. Hippocampi were then removed from the brains under a dissecting microscope and were placed on a paraffin-covered dish. The meninges were stripped away and the dissected hippocampi were collected in a small petri dish in HBSS. The hippocampi were transferred to a 15-ml centrifuge tube (normally 10-12 brains per tube) filled with HBSS. The tube containing the brains was centrifuged at 1000 rpm for 2 minutes in a GH 3.8 A rotor in an Allegra Centrifuge (Beckman Instruments, Fullerton, Calif.). The supernatant was removed, 2 ml of HBSS was added to the hippocampi in the tube, and the resulting suspension was triturated 2 times each with long-tipped siliconized glass pipettes having progressively smaller apertures, starting with a pipette with a standard size opening (approximately 1.0 mm diameter), following with one having an aperture of half standard size (approximately 0.5 mm diameter), then with one having an aperture about one-half that size (0.25 mm diameter). The suspension was then centrifuged again at 1000 rpm for 2 min in a tabletop centrifuge, the supernatant was discarded, and 2 ml of Neurobasal/B27i (with antibiotics) was added to the tube. The trituration procedure described above was then repeated on this suspension.
# The density of cells was determined on a small aliquot of cells using standard counting procedures and correcting for cell viability by trypan blue stain exclusion. Using this procedure, the expected yield is 3×10^5-6×10^5 cells/brain. Cells were then added to PDL-coated 12 well plates, flasks or MetTek dishes in Neurobasal/B27I at a density of about 1.5×10^6 cells (T75 flask) or about 100,000 cells/well of a 12-well plate. Plated cells were incubated at 37° C. with 5% CO2 in air atmosphere. Media was renewed after 3-4 days by replacing half of it with fresh Neurobasal/B27m medium, containing 5 μM cytosine arabinoside (AraC). Seven to eight days from the initial culture, the media was renewed again, by removing one-half or it and replacing with an equal amount of fresh Neurobasal/B27m medium (without Ara-C).
# This assay was used to induce ischemia by anoxia-reoxygenation in cultured hippocampal neuronal cells. Test compounds were added to assess potency and efficacy against ischemia-induced neuronal cell injury and cell death.
# Neurobasal media, NoG neurobasal media, B27 supplement and B27 Supplement minus AO were obtained from Life Technologies. Neurobasal/B27 medium was prepared with 2× B27 minus AO supplement, 0.5 mM L-glutamine and 0.25× penicillin/streptomycin. Cell Tracker Green was obtained from Molecular Probes and a fresh 5 μM solution was prepared from 10 mM stock just before use. NoG-Neurobasal contains NoG neurobasal medium plus 0.5 mM glucose, 0.1 mM L-glutamine and 0.25× Penicillin/Streptomycin. Primary hippocampal neuronal cells were prepared according to the methods described above and were cultured in poly-D-lysine coated 12 well plates for 10-11 days prior to use. […]
structure (smiles),measurement,value
"CC1=C(CC/C(C)=C/Cc2cc(C(=O)O)ccc2O)[C@]2(C)CCCC(C)(C)[C@H]2CC1 [(−)-subersic acid (1), 4-hydroxy-3-[3-methyl-5-(2,5,5,8a-tetramethyl-3,4,4a,5,6,7,8,8a-octahydro-naphthalen-1-yl)-pent-2-enyl]-benzoic acid]",Percent Activity,No activity at 10 μg/mL
"CC1=CCC[C@H](C)[C@]1(C)CC/C(C)=C/CCc1ccoc1 [(+)-subersin (2), 3-[4-methyl-6-(1,2,6-trimethyl-cyclohex-2-enyl)-hex-3-enyl]-furan]",Dose for Max. Activity,1 µg/mL
same,Percent Activity,30%
same,cell viability,increased cell viability
"CC1=C(CC/C(C)=C/CC/C(C)=C/Cc2cc(O)ccc2O)C(C)(C)CCC1 [jaspaquinol (3), 2-[3,7-dimethyl-9-(2,6,6-trimethyl-cyclohex-1-enyl)-nona-2,6-dienyl]-benzene-1,4-diol]",Dose for Max. Activity,0.1 µg/mL
same,Percent Activity,20%
same,cell viability,increased cell viability

# From patent publication US6750247B2, “Sponge-derived terpenoids and methods of use” (Galileo Laboratories, Inc., priority 2001, dated 2004)
